Patent US20220117919A1, “ENHANCED BIOAVAILABILITY OF N-(2,6-BIS(1-METHYLETHYL)PHENYL)-N'-((1-(4-(DIMETHYLAMINO)-PHENYL)CYCLOPENTYL)METHYL)UREA HYDROCHLORIDE” (The Regents of the University of Michigan, priority 2015, published 2022)
Where “and” joins values, the source holds several entries; their conditions need not be identical. Equal values may be shown once. Where a name gives a salt, the structure may show the parent alone. Read-outs that look alike come from different tables or passages of the source.

Assay: Food and acidic beverage effect on bioavailability of ATR-101 tablets, 3-way crossover plasma PK study
Type: in vivo, human
Conditions: for kel: in h-1; for AUC0-t Ratio C/A: fasting with acidic beverage vs fasting with water; for AUC0-t Ratio B/C: fed with water vs fasting with acidic beverage; for AUC0-t Ratio B/A: fed with water vs fasting with water
Method: To evaluate the effects of food and of an acidic beverage on bioavailability of ATR-101 tablets prepared according to Example 2 (see Table 2), an open-label, randomized, 3-period, 3-way crossover, 3-sequence study was carried out with fourteen healthy, adult, non-tobacco using male and female (non-childbearing potential only) human subjects.
Three different treatments A, B, and C were administered as follows:
Treatment A: 500 mg ATR-101 (1×500 mg tablet) administered with water at Hour 0 on Day 1 following an overnight fast.
Treatment B: 500 mg ATR-101 (1×500 mg tablet) administered with water at Hour 0, 30 minutes after the start of a high-fat breakfast, on Day 1.
Treatment C: 500 mg ATR-101 (1×500 mg tablet) administered with Coca-Cola® Classic at Hour 0 on Day 1 following an overnight fast.
On Day 1 of Period 1, subjects were randomized to one of 3 treatment sequences: ABC, BCA, or CBA. For Treatments A and B, ATR-101 was administered orally with approximately 240 mL of water. For Treatment C, ATR-101 was administered orally with approximately 240 mL of Coca-Cola® Classic. Water (except water provided with dosing for Treatments A and B) was restricted 1 hour prior to and 1 hour after each study drug administration, but was allowed ad libitum at all other times. Other fluids were given as part of the standard meals (including the breakfast administered prior to study drug dosing for Treatment B) and/or snacks, but were restricted at all other times (except for the Coca-Cola® Classic beverage provided with dosing in Treatment C) throughout the confinement period.
For Treatments A and C, subjects fasted overnight for at least 10 hours prior to study drug administration and continued the fast for at least 4 hours post-dose.
For Treatment B, subjects were required to fast overnight for at least 10 hours until 30 minutes prior to study drug administration, when they were given breakfast which was entirely consumed within 30 minutes. A representative breakfast includes 2 slices of buttered toast, 2 fried eggs, 2 strips of bacon, 4 oz of hash brown potatoes, and 240 mL of whole milk.
On Day 1 of each period, a standard lunch and dinner was provided at approximately 4 and 9 hours post-dose, respectively, and a snack was also offered at approximately 12 hours post-dose. On other days when confined in the CRU, standard meals and/or snacks were provided at appropriate times. When confined, subjects were required to fast from all food and drink except water between meals and snacks served at the clinical research unit.
Each meal and/or snack served at the clinical research unit was standardized and was similar in caloric content and composition (except for the meal served as part of Treatment B) and was taken at approximately the same time in each period.
For all subjects, blood samples for the determination of ATR-101 plasma concentration were collected at pre-dose and 0.5, 1, 1.5, 2, 2.5, 3, 3.5, 4, 5, 6, 8, 12, 16, 24, 36, and 48 hours post-dose. PK parameters for plasma ATR-101 were calculated as follows: • AUC0-t: The area under the plasma concentration-time curve, from time 0 to the last measurable non-zero concentration, was calculated by the linear trapezoidal method. • AUC0-inf: The area under the plasma concentration-time curve from time 0 extrapolated to infinity. AUC0-inf was calculated as the sum of AUC0-t plus the ratio of the last measurable plasma concentration to the elimination rate constant. • AUC%extrap: Percent of AUC0-inf extrapolated, represented as
[formula] • Cmax: Maximum observed concentration. • tmax: Time to reach Cmax. If the maximum value occurred at more than one time point, tmax was defined as the first time point with this value. • ke1: Apparent first-order terminal elimination rate constant calculated from a semi-log plot of the plasma concentration versus time curve. […]

[1] = Treatment C (fasting with acidic beverage), single oral 500 mg, Minimum
[2] = Treatment C (fasting with acidic beverage, Coca-Cola Classic), single oral 500 mg, individual subject, hydrochloride
[3] = individual subject, hydrochloride

In the case of CC(C)c1cccc(C(C)C)c1NC(=O)NCC1(c2ccc(N(C)C)cc2)CCCC1 [ATR-101, N-(2,6-bis(1-methylethyl)phenyl)-N′-((1-(4-(dimethylamino)-phenyl)cyclopentyl)methyl)urea hydrochloride], the tmax [1] is reported as 1.50 h, the kel [1] is reported as 0.0249 and the AUC0-inf [2] is reported as 728 and 3990 and 5760 and 2610 and 5420 and 4530 and 6970 and 2880 and 3670 and 2670 and 6680 and 5020. For the same molecule, the AUC0-t [2] was 572 and 5100 and 2510 and 4940 and 4110 and 6430 and 2360 and 3660 and 3400 and 2250 and 6310 and 4300, the AUC% extrap [2] was 21.5% and 4.67% and 11.3% and 3.84% and 8.70% and 9.20% and 7.61% and 18.3% and 7.31% and 15.6% and 5.52% and 14.2% and the Cmax [2] was 19.8 ng/mL and 734 ng/mL and 1030 ng/mL and 438 ng/mL and 948 ng/mL and 645 ng/mL and 952 ng/mL and 461 ng/mL and 602 ng/mL and 525 ng/mL and 1550 ng/mL and 893 ng/mL. For the same molecule, the t1/2 [2] was 17.5 h and 13.8 h and 8.2 h and 14.0 h and 18.7 h and 20.1 h and 7.9 h and 16.0 h and 26.9 h and 14.2 h and 27.1 h, the tmax [2] was 6.00 h and 3.00 h and 1.50 h and 2.50 h and the kel [2] was 0.0397 and 0.0501 and 0.0380 and 0.0496 and 0.0371 and 0.0345 and 0.0353 and 0.0249 and 0.0433 and 0.0258 and 0.0488 and 0.0256. For the same molecule, the AUC0-inf (both sexes, human, plasma, po, 500 mg, Treatment A (fasting with water), single oral 500 mg, Geometric Mean, read-out: AUC0-inf) was 3480 ng·h/mL, the AUC0-t (both sexes, human, plasma, po, 500 mg, Treatment A (fasting with water), single oral 500 mg, Geometric Mean, read-out: AUC0-t) was 2710 ng·h/mL and the Cmax (both sexes, human, plasma, po, 500 mg, Treatment A (fasting with water), single oral 500 mg, Geometric Mean, read-out: Cmax) was 469 ng/mL. It also gave a half-life (both sexes, human, plasma, po, 500 mg, Treatment A (fasting with water), single oral 500 mg, Mean) of 17.9 h, an AUC0-inf (both sexes, human, plasma, po, 500 mg, Treatment A (fasting with water), single oral 500 mg, Mean, read-out: AUC0-inf) of 3620 ng·h/mL and an AUC0-t (both sexes, human, plasma, po, 500 mg, Treatment A (fasting with water), single oral 500 mg, Mean, read-out: AUC0-t) of 2970 ng·h/mL. It also gave a Cmax (both sexes, human, plasma, po, 500 mg, Treatment A (fasting with water), single oral 500 mg, Mean, read-out: Cmax) of 575 ng/mL, a half-life (both sexes, human, plasma, po, 500 mg, Treatment A (fasting with water), single oral 500 mg, Median) of 18.2 h and an AUC0-inf (both sexes, human, plasma, po, 500 mg, Treatment A (fasting with water), single oral 500 mg, Median, read-out: AUC0-inf) of 3400 ng·h/mL. For the same molecule, the AUC0-t (both sexes, human, plasma, po, 500 mg, Treatment A (fasting with water), single oral 500 mg, Median, read-out: AUC0-t) was 2620 ng·h/mL, the Cmax (both sexes, human, plasma, po, 500 mg, Treatment A (fasting with water), single oral 500 mg, Median, read-out: Cmax) was 542 ng/mL and the tmax (both sexes, human, plasma, po, 500 mg, Treatment A (fasting with water), single oral 500 mg, Median, read-out: tmax) was 2 h. It also gave an AUC0-inf (both sexes, human, plasma, po, 500 mg, Treatment B (fed with water), single oral 500 mg, Geometric Mean, read-out: AUC0-inf) of 6740 ng·h/mL, an AUC0-t (both sexes, human, plasma, po, 500 mg, Treatment B (fed with water), single oral 500 mg, Geometric Mean, read-out: AUC0-t) of 6200 ng·h/mL and a Cmax (both sexes, human, plasma, po, 500 mg, Treatment B (fed with water), single oral 500 mg, Geometric Mean, read-out: Cmax) of 1180 ng/mL. For the same molecule, the half-life (both sexes, human, plasma, po, 500 mg, Treatment B (fed with water), single oral 500 mg, Mean) was 20.4 h, the AUC0-inf (both sexes, human, plasma, po, 500 mg, Treatment B (fed with water), single oral 500 mg, Mean, read-out: AUC0-inf) was 7130 ng·h/mL and the AUC0-t (both sexes, human, plasma, po, 500 mg, Treatment B (fed with water), single oral 500 mg, Mean, read-out: AUC0-t) was 6560 ng·h/mL. For the same molecule, the Cmax (both sexes, human, plasma, po, 500 mg, Treatment B (fed with water), single oral 500 mg, Mean, read-out: Cmax) was 1250 ng/mL, the half-life (both sexes, human, plasma, po, 500 mg, Treatment B (fed with water), single oral 500 mg, Median) was 18.9 h and the AUC0-inf (both sexes, human, plasma, po, 500 mg, Treatment B (fed with water), single oral 500 mg, Median, read-out: AUC0-inf) was 6810 ng·h/mL. It also gave an AUC0-t (both sexes, human, plasma, po, 500 mg, Treatment B (fed with water), single oral 500 mg, Median, read-out: AUC0-t) of 6110 ng·h/mL, a Cmax (both sexes, human, plasma, po, 500 mg, Treatment B (fed with water), single oral 500 mg, Median, read-out: Cmax) of 1150 ng/mL and a tmax (both sexes, human, plasma, po, 500 mg, Treatment B (fed with water), single oral 500 mg, Median, read-out: tmax) of 2.75 h. The AUC0-inf (both sexes, human, plasma, po, 500 mg, Treatment C (fasting with acidic beverage), single oral 500 mg, Geometric Mean, read-out: AUC0-inf) was 3720 ng·h/mL, the AUC0-t (both sexes, human, plasma, po, 500 mg, Treatment C (fasting with acidic beverage), single oral 500 mg, Geometric Mean, read-out: AUC0-t) was 3340 ng·h/mL and the Cmax (both sexes, human, plasma, po, 500 mg, Treatment C (fasting with acidic beverage), single oral 500 mg, Geometric Mean, read-out: Cmax) was 558 ng/mL. It also gave a half-life (both sexes, human, plasma, po, 500 mg, Treatment C (fasting with acidic beverage), single oral 500 mg, Mean) of 19.5 h, an AUC0-inf (both sexes, human, plasma, po, 500 mg, Treatment C (fasting with acidic beverage), single oral 500 mg, Mean, read-out: AUC0-inf) of 4240 ng·h/mL and an AUC0-t (both sexes, human, plasma, po, 500 mg, Treatment C (fasting with acidic beverage), single oral 500 mg, Mean, read-out: AUC0-t) of 3830 ng·h/mL. For the same molecule, the Cmax (both sexes, human, plasma, po, 500 mg, Treatment C (fasting with acidic beverage), single oral 500 mg, Mean, read-out: Cmax) was 728 ng/mL, the half-life (both sexes, human, plasma, po, 500 mg, Treatment C (fasting with acidic beverage), single oral 500 mg, Median) was 18.4 h and the AUC0-inf (both sexes, human, plasma, po, 500 mg, Treatment C (fasting with acidic beverage), single oral 500 mg, Median, read-out: AUC0-inf) was 4260 ng·h/mL. It also gave an AUC0-t (both sexes, human, plasma, po, 500 mg, Treatment C (fasting with acidic beverage), single oral 500 mg, Median, read-out: AUC0-t) of 3800 ng·h/mL, a Cmax (both sexes, human, plasma, po, 500 mg, Treatment C (fasting with acidic beverage), single oral 500 mg, Median, read-out: Cmax) of 666 ng/mL and a tmax (both sexes, human, plasma, po, 500 mg, Treatment C (fasting with acidic beverage), single oral 500 mg, Median, read-out: tmax) of 2 h. The “AUC0-t Ratio C/A” value (Geometric Mean) was 126%, the “AUC0-t Ratio C/A” value (Maximum) was 588% and the “AUC0-t Ratio C/A” value (Mean) was 160%. For the same molecule, the “AUC0-t Ratio C/A” value (Median) was 131%, the “AUC0-t Ratio C/A” value (Minimum) was 23.3% and the “AUC0-t Ratio C/A” value [3] was 23.3% and 120% and 134% and 101% and 588% and 187% and 132% and 155% and 89.3% and 130% and 143% and 111%. The “increase in systemic exposure” value (fed state (Treatment B) compared to fasting state with acidic beverage (Treatment C)) was 108%, the “increase in systemic exposure” value (fed state (Treatment B) compared to fasting state with water (Treatment A)) was 153% and the “AUC0-t Ratio B/C” value (Geometric Mean) was 184%. For the same molecule, the “AUC0-t Ratio B/C” value (Maximum) was 615%, the “AUC0-t Ratio B/C” value (Mean) was 208% and the “AUC0-t Ratio B/C” value (Median) was 156%. For the same molecule, the “AUC0-t Ratio B/C” value (Minimum) was 83.2%, the “AUC0-t Ratio B/C” value [3] was 615% and 156% (2×) and 258% and 210% and 83.2% and 168% and 131% and 267% and 148% and 211% and 147% and 153% and the “AUC0-t Ratio B/A” value (Geometric Mean) was 233%. The “AUC0-t Ratio B/A” value (Maximum) was 490%, the “AUC0-t Ratio B/A” value (Mean) was 253% and the “AUC0-t Ratio B/A” value (Median) was 211%. For the same molecule, the “AUC0-t Ratio B/A” value (Minimum) was 132% and the “AUC0-t Ratio B/A” value [3] was 144% and 187% and 346% and 212% and 490% and 313% and 173% and 292% and 415% and 132% and 203% and 211% and 169%.
